Relative viability data for one cell line are collected here from the supplement of paper PMC10307832.

Common to all, as to experiment: relative viability (nuclei count vs DMSO), 5 days (fraction); higher = more cells survive
Compound in the test “Idelalisib + Pictilisib”: CC[C@H](Nc1ncnc2[nH]cnc12)c1nc2cccc(F)c2c(=O)n1-c1ccccc1 [Idelalisib] + CS(=O)(=O)N1CCN(Cc2cc3nc(-c4cccc5[nH]ncc45)nc(N4CCOCC4)c3s2)CC1 [Pictilisib] (partner 1 µM)
A digest of the protocol: (§1)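 Values are medians from duplicate plates. Each reflects relative viability, defined as the nuclei count of treated wells over that of vehicle wells. Lung cancer cell lines in 1536-well plates were pin-tool dosed one day after seeding with one drug alone or with a fixed anchor-drug dose plus five library-drug doses (not always all listed) in √10 steps, then fixed, stained and imaged at 4× after 5 days.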

Compound in the test “Pemetrexed + Trametinib”: Nc1nc2[nH]cc(CCc3ccc(C(=O)N[C@@H](CCC(=O)O)C(=O)O)cc3)c2c(=O)[nH]1 [Pemetrexed] + CC(=O)Nc1cccc(-n2c(=O)n(C3CC3)c(=O)c3c(Nc4ccc(I)cc4F)n(C)c(=O)c(C)c32)c1 [Trametinib] (partner 0.02 µM)
A digest of the protocol:
as §1

Compound in the test “Pemetrexed + Linsitinib”: Nc1nc2[nH]cc(CCc3ccc(C(=O)N[C@@H](CCC(=O)O)C(=O)O)cc3)c2c(=O)[nH]1 [Pemetrexed] + C[C@]1(O)C[C@@H](c2nc(-c3ccc4ccc(-c5ccccc5)nc4c3)c3c(N)nccn32)C1 [Linsitinib] (partner 1 µM)
A digest of the protocol: as §1

Compound in the test “Pemetrexed + Tozasertib”: Nc1nc2[nH]cc(CCc3ccc(C(=O)N[C@@H](CCC(=O)O)C(=O)O)cc3)c2c(=O)[nH]1 [Pemetrexed] + Cc1cc(Nc2cc(N3CCN(C)CC3)nc(Sc3ccc(NC(=O)C4CC4)cc3)n2)n[nH]1 [Tozasertib] (partner 0.1 µM)
In short, it runs like this:
as §1

In the case of UMC-11, the relative viability in the test with Idelalisib + Pictilisib (first compound 0.04 µM) stood at 0.939; with Idelalisib + Pictilisib (first compound 0.1265 µM), 0.744; in the test with Idelalisib + Pictilisib (first compound 0.4 µM), 0.778; with Idelalisib + Pictilisib (first compound 1.265 µM), 0.939; in the test with Idelalisib + Pictilisib (first compound 4 µM), 0.865; with Pemetrexed + Trametinib (first compound 0.002 µM), 0.659. In addition, the relative viability stood at 0.663 with Pemetrexed + Trametinib (first compound 0.006325 µM); 0.819 with Pemetrexed + Trametinib (first compound 0.02 µM); 0.655 with Pemetrexed + Trametinib (first compound 0.06325 µM); 0.619 in the test with Pemetrexed + Trametinib (first compound 0.2 µM); 0.836 with Pemetrexed + Linsitinib (first compound 0.002 µM); 1.03 with Pemetrexed + Linsitinib (first compound 0.006325 µM). Further, the relative viability with Pemetrexed + Linsitinib (first compound 0.02 µM) worked out at 1.08; in the test with Pemetrexed + Linsitinib (first compound 0.06325 µM), 0.985; in the test with Pemetrexed + Linsitinib (first compound 0.2 µM) it was 0.903; in the test with Pemetrexed + Tozasertib (first compound 0.002 µM) it was 0.196; with Pemetrexed + Tozasertib (first compound 0.006325 µM) it was 0.217; with Pemetrexed + Tozasertib (first compound 0.02 µM), 0.199. Moreover, the relative viability stood at 0.202 in the test with Pemetrexed + Tozasertib (first compound 0.06325 µM) and 0.208 in the test with Pemetrexed + Tozasertib (first compound 0.2 µM).
